Laboratory results: patent US20240425478A1, “CYCLOPENTYLPYRAZOLE CDK2 INHIBITORS” (Genentech, Inc., priority 2021, published 2024)
Like-named read-outs stand apart in the source and are kept apart here.

Columns and labels:
[1] = target: T1, Cyclin Dependent Kinase 2/Cyclin E1 (CDK2-cycE1) (Homo sapiens, UniProt P24941); test: CDK2-cycE1 TR-FRET (LANCE) enzyme assay; format: biochemical; settings: for FS CDK1/CDK2 / FS CDK4/CDK2: fold selectivity; for increased fold-selectivity CDK4/CDK2 over Comparator C: (+) sign after FS CDK4/CDK2;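 on improvement in potency against CDK2 (Ki) over Comparator C: fold lower CDK2 Ki than comparator c (Ki 0.032 µM)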
T1 construct: purchased ProQinase 0050-0055-1
Summary of the method: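 Kinase reaction buffer: 50 mM HEPES pH 7.5, 10 mM MgCl2, 2 mM TCEP, 0.05% BGG, 0.01% Brij 35, with 30 min compound–enzyme pre-incubation.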

[2] = target: T2, Cyclin Dependent Kinase 4/Cyclin D3 (CDK4-cycD3) (Homo sapiens, UniProt P11802); test: CDK4-cycD3 TR-FRET (LANCE) enzyme assay; format: biochemical; settings: for Ki: Table O, enzymatic assay; for FS CDK4/CDK2: fold selectivity, enzymatic Ki ratio
T2 construct: purchased Carna Biosciences 04-105
T2 sequence (P11802 whole entry): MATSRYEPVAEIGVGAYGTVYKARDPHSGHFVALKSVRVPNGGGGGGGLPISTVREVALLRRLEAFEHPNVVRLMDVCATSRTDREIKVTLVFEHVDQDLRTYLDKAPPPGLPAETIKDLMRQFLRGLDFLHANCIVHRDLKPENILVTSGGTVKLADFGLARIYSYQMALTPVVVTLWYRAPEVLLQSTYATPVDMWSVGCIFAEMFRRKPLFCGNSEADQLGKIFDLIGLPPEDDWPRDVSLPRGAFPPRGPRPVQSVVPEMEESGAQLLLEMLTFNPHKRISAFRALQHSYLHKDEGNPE
T2 sequence (P30281 whole entry partner): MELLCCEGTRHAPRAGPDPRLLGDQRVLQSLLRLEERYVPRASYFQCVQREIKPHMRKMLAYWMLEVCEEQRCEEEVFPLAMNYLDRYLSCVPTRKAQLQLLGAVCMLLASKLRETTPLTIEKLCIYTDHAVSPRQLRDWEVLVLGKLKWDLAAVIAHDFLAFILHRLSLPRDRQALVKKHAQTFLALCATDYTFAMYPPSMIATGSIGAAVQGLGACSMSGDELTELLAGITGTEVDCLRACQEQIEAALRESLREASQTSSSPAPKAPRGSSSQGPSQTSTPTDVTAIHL
Summary of the method: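 Compound dose responses pre-incubated 30 min with enzyme mix in 50 mM HEPES pH 7.5, 10 mM MgCl2, 2 mM TCEP, 0.05% BGG, 0.01% Brij 35. Reaction quenched with EDTA (15 mM final); Eu-anti-phospho-4E-BP1 TR-FRET detection, acceptor/donor ratio. Ki derived by Morrison equation.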

HCT116 cells = test: p-H3 HCT-116 mitotic release cell proliferation assay (cellular CDK1); format: cell-based; settings: Homo sapiens
Summary of the method: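 Phospho-Histone H3 (Ser10) in lysates was quantified by a two-antibody HTRF FRET read (≥2 h, room temperature). Before this, HCT116 cells held in mitosis by 16 h of 500 nM nocodazole were treated with compound for 4 h at 37 °C, 0.1% DMSO.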

[3] = system: OVISE (JCRB1043, CCNE1-amplified); test: OVISE EdU incorporation cell proliferation assay (CDK2-dependent); format: cell-based; settings: for IC50: read-out: CDK2 OVISE IC50; for FS SKOV-3/OVISE / FS p-H3/OVISE: fold selectivity; for FS p-H3/OVISE: cellular p-H3 IC50 over OVISE IC50; for increased fold-selectivity SKOV-3/OVISE over Comparator C: (+) sign after FS SKOV-3/OVISE; for improvement in CDK2 OVISE cell potency over Comparator C: Comparator C 5.5 μM
Summary of the method: (§1)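 EdU incorporation (0.5 μM final, last 8 h) follows a 16 h compound exposure at 37 °C, 5% CO2 in RPMI plus 10% FBS, 0.5% DMSO. After fixation, imaging scores EdU-positive cells; a 4-parameter logistic fit of that fraction gives IC50.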

SKOV-3 (ATCC HTB-77) = test: SKOV-3 EdU incorporation cell proliferation assay (CDK4/6-dependent); format: cell-based; settings: for IC50: Homo sapiens; for FS SKOV-3/OVISE: fold selectivity, cellular IC50 ratio
Summary of the method: as §1

[4] = target: T3, Cyclin Dependent Kinase 1/Cyclin A2 (CDK1-cycA2) (Homo sapiens, UniProt P06493); test: CDK1-cycA2 TR-FRET (Lance) enzyme assay; format: biochemical; settings: for Ki: Table O, enzymatic assay; for FS CDK1/CDK2: fold selectivity, enzymatic Ki ratio
T3 construct: purchased ProQinase 0134-0054-1
T3 sequence (P06493 whole entry): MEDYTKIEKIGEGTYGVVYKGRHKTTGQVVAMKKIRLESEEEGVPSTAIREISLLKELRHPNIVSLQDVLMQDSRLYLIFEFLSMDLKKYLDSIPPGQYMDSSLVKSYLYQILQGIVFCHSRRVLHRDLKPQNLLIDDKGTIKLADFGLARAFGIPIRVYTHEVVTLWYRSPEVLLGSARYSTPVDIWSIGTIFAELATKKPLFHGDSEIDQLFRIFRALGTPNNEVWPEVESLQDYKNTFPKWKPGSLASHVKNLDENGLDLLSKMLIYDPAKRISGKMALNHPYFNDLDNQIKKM
T3 sequence (P20248 whole entry partner): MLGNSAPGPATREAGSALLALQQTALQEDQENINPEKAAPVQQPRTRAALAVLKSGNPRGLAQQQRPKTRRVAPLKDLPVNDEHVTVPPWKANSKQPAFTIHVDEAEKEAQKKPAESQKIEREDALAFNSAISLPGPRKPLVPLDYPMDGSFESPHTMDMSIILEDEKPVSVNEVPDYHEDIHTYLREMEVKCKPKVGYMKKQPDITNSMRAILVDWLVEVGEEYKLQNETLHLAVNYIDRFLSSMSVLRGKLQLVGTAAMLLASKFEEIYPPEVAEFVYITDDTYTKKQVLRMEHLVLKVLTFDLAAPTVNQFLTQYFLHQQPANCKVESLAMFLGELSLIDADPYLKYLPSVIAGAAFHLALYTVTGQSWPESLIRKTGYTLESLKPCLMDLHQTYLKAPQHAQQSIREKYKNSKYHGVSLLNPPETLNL
Summary of the method: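 TR-FRET (Lance) detection of phospho-4E-BP1 with a europium-labelled antibody after EDTA quench (15 mM final); signal taken as acceptor/donor ratio. Enzyme and compound were pre-incubated 30 min in HEPES pH 7.5 buffer with MgCl2, TCEP, BGG and Brij 35. Ki derived by Morrison fit.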

[5] = Table O, enzymatic assay, read-out: CDK2 Ki
[6] = Table O, enzymatic CDK1 Ki over CDK2 Ki
[7] = Table O, enzymatic CDK4 Ki over CDK2 Ki
[8] = HCT-116, Table O, cellular assay, read-out: CDK1 p-H3 IC50
[9] = Table O, cellular SKOV-3 IC50 over OVISE IC50
[10] = SK-OV-3, Table O, cellular assay, read-out: CDK4/6 SKOV-3 IC50
[11] = read-out: CDK2 activity / potency (enzymatic assay)
[12] = Table Q, enzymatic assay, read-out: CDK2 Ki
[13] = Table Q, in brackets after OVISE IC50
[14] = SK-OV-3, Table Q, cellular assay, read-out: CDK4/6 SKOV-3 IC50

| SMILES | Ki [1, 5] [nM] | FS CDK1/CDK2 [1, 6] | FS CDK4/CDK2 [1, 7] | Ki [2] [nM] | IC50 (HCT116 cells; [8]) [nM] | IC50 ([3]; Table O, cellular assay) [nM] | FS SKOV-3/OVISE [3, 9] | FS p-H3/OVISE ([3]; Table O) | IC50 (SKOV-3 (ATCC HTB-77); [10]) [nM] | Ki [4] [nM] | Ki [1, 11] [nM] | further results |
| --- | --- | --- | --- | --- | --- | --- | --- | --- | --- | --- | --- | --- |
| CC(C)(C)NC(=O)O[C@@H]1CC[C@H](c2cc(Nc3cccnn3)n[nH]2)C1 [Example 4I, (1R,3S)-3-(3-(pyridazin-3-ylamino)-1H-pyrazol-5-yl)cyclopentyl tert-butylcarbamate] | 2.5 | 18 | 13 | 33 | 150 | 240 | 20 | 0.63 | 4900 | 45 |  | Ki ([1]; Table R, enzymatic assay, read-out: CDK2 Ki): 2.5 nM; CDK2 Ki fold change in potency versus Comparator D ([1]; Table R, in brackets after CDK2 Ki): 1.1 fold; Ki ([1]; Table S, enzymatic assay, read-out: CDK2 Ki): 2.5 nM; CDK2 Ki fold change in potency versus Comparator E ([1]; Table S, in brackets after CDK2 Ki): 0.2 fold; FS CDK4/CDK2 increased over Comparator D, (+) sign ([2]; Table R): (+); FS CDK4/CDK2 ([2]; Table R): 13; FS CDK4/CDK2 ([2]; Table S): 13; CDK2 OVISE IC50 fold change in potency versus Comparator D ([3]; Table R, in brackets after OVISE IC50): 16 fold; CDK2 OVISE IC50 fold change in potency versus Comparator E ([3]; Table S, in brackets after OVISE IC50): 0.7 fold; selectivity for CDK2 over CDK4 compared with Comparator E (SKOV-3 (ATCC HTB-77); SKOV-3/OVISE fold-selectivity cellular assay data): increase in selectivity for CDK2 over CDK4; FS SKOV-3/OVISE increased over Comparator D, (+) sign (SKOV-3 (ATCC HTB-77); Table R): (+); FS SKOV-3/OVISE (SKOV-3 (ATCC HTB-77); Table R): 20; FS SKOV-3/OVISE increased over Comparator E, (+) sign (SKOV-3 (ATCC HTB-77); Table S): (+); FS SKOV-3/OVISE (SKOV-3 (ATCC HTB-77); Table S): 20; FS CDK1/CDK2 ([4]; Table R): 18; FS CDK1/CDK2 ([4]; Table S): 18 |
| Cc1nc(C(=O)N(C)C)ccc1Nc1cc([C@H]2CC[C@@H](OC(=O)NC3(C)CC3)C2)[nH]n1 [Example 7, (1R,3S)-3-(3-((6-(dimethylcarbamoyl)-2-methylpyridin-3-yl)amino)-1H-pyrazol-5-yl)cyclopentyl (1-methylcyclopropyl)carbamate] | 0.36 | 64 | 110 | 38 | 50 | 58 | 66 | 0.86 | 3800 | 23 | ≤ 1 |  |
| CC(C)(C)NC(=O)O[C@@H]1CC[C@H](c2cc(Nc3ccnc(CO)c3)n[nH]2)C1 [Example 10C, (1R,3S)-3-(3-((2-(hydroxymethyl)pyridin-4-yl)amino)-1H-pyrazol-5-yl)cyclopentyl tert-butylcarbamate] | 1.8 | 32 | 28 | 51 | 180 | 130 | 44 | 1.4 | 5700 | 58 |  |  |
| CC1(NC(=O)O[C@@H]2CC[C@H](c3cc(Nc4ccc(C#N)cn4)n[nH]3)C2)COC1 [Example 10E, (1R,3S)-3-(3-((5-cyanopyridin-2-yl)amino)-1H-pyrazol-5-yl)cyclopentyl (3-methyloxetan-3-yl)carbamate] | 0.78 | 32 | 82 | 64 |  |  | 20 | 1.1 |  | 25 |  | IC50 (HCT116 cells; HCT-116, read-out: CDK1 p-H3 IC50): 120 nM; IC50 [3]: 110 nM; IC50 (SKOV-3 (ATCC HTB-77); SK-OV-3, read-out: CDK4/6 SKOV-3 IC50): 2200 nM |
| CC(CC(F)(F)F)NC(=O)O[C@@H]1CC[C@H](c2cc(Nc3ccc(=O)n(C)n3)n[nH]2)C1 (stereo partly drawn) [Example 6D, (1R,3S)-3-(3-((1-methyl-6-oxo-1,6-dihydropyridazin-3-yl)amino)-1H-pyrazol-5-yl)cyclopentyl (4,4,4-trifluorobutan-2-yl)carbamate] | 0.21 | 17 | 290 | 61 | 72 | 77 | 56 | 0.94 | 4300 | 3.6 |  |  |
| CN(C)Cc1ccc(Nc2cc([C@H]3CC[C@@H](OC(=O)NC45CC(C4)C5)C3)[nH]n2)cn1 [Example 9J, (1R,3S)-3-(3-((6-((dimethylamino)methyl)pyridin-3-yl)amino)-1H-pyrazol-5-yl)cyclopentyl bicyclo[1.1.1]pentan-1-ylcarbamate] | 1.9 | 34 | 8.9 | 17 | 39 | 89 | 3.1 | 0.44 | 280 | 64 |  |  |
| Cc1ncccc1Nc1cc([C@H]2CC[C@@H](OC(=O)NC3(C)COC3)C2)[nH]n1 [Example 8] | 3.1 | 52 | 213 | 660 | 560 | 320 | 47 | 1.8 | 15000 | 160 |  |  |
| CC(C)NC(=O)O[C@@H]1CC[C@H](c2cc(Nc3cncc(C(F)(F)F)n3)n[nH]2)C1 [Example 2R, (1R,3S)-3-(3-((6-(trifluoromethyl)pyrazin-2-yl)amino)-1H-pyrazol-5-yl)cyclopentyl isopropylcarbamate] | < 0.1 | 6.3 | 140 | 9 | 3.5 | 5.6 | 30 | 0.63 | 170 | 0.4 | ≤ 1 | improvement in potency against CDK2 (Ki) over Comparator C [1]: 320 fold; increased fold-selectivity CDK4/CDK2 over Comparator C ([1]; Table Q): (+) (The (+) sign in Table Q signifies desirable increased fold-selectivity of the exemplary compounds over Comparator C); Ki [1, 12]: < 0.1 nM; FS CDK1/CDK2 ([1]; Table Q, enzymatic): 6.3; FS CDK4/CDK2 ([1]; Table Q, enzymatic): 140; increased fold-selectivity SKOV-3/OVISE over Comparator C ([3]; Table Q): (+) (The (+) sign in Table Q signifies desirable increased fold-selectivity of the exemplary compounds over Comparator C); FS SKOV-3/OVISE ([3]; Table Q, cellular): 30; improvement in CDK2 OVISE cell potency over Comparator C [3, 13]: 982 fold; IC50 (SKOV-3 (ATCC HTB-77); [14]): 170 nM |
| Cc1cnc(Nc2cc([C@H]3CC[C@@H](OC(=O)NC(C)C)C3)[nH]n2)c(C)n1 [Example 2V, (1R,3S)-3-(3-((3,5-dimethylpyrazin-2-yl)amino)-1H-pyrazol-5-y1)cyclopentyl isopropylcarbamate] | 0.92 | 39 | 280 | 260 | 97 | 110 | 23 | 0.88 | 2500 | 36 | ≤ 1 | improvement in potency against CDK2 (Ki) over Comparator C [1]: 35 fold; increased fold-selectivity CDK1/CDK2 over Comparator C ([1]; Table Q, (+) sign after FS CDK1/CDK2): (+) (The (+) sign in Table Q signifies desirable increased fold-selectivity of the exemplary compounds over Comparator C); increased fold-selectivity CDK4/CDK2 over Comparator C ([1]; Table Q): (+) (The (+) sign in Table Q signifies desirable increased fold-selectivity of the exemplary compounds over Comparator C); Ki [1, 12]: 0.92 nM; FS CDK1/CDK2 ([1]; Table Q, enzymatic): 39; FS CDK4/CDK2 ([1]; Table Q, enzymatic): 280; increased fold-selectivity SKOV-3/OVISE over Comparator C ([3]; Table Q): (+) (The (+) sign in Table Q signifies desirable increased fold-selectivity of the exemplary compounds over Comparator C); FS SKOV-3/OVISE ([3]; Table Q, cellular): 23; improvement in CDK2 OVISE cell potency over Comparator C [3, 13]: 50 fold; IC50 (SKOV-3 (ATCC HTB-77); [14]): 2500 nM |
